Assay: wn = mass fraction of the nth substance listed
Conditions: 101 kPa, Liquid; for viscosity: Falling or rolling sphere viscometry; for speed of sound: Frequency=3 MHz, Single path-length method; for mass density: Vibrating tube method

Cl.NNC(N)=O [semicarbazide hydrochloride] + O
Conditions | mass density, w1 = 0.01 [kg/m3] | mass density, w1 = 0.02 [kg/m3] | speed of sound, w1 = 0.01 [m/s] | speed of sound, w1 = 0.02 [m/s] | viscosity, w1 = 0.01 [mPa·s] | viscosity, w1 = 0.02 [mPa·s]
293.15 K | 1002.51 | 1006.71 | 1490 | 1495.8 | 1.016 | 1.031
298.15 K | 1001.29 | 1005.43 | 1503 | 1509 | 0.9018 | 0.9134
303.15 K | 999.819 | 1003.99 | 1515.1 | 1520.9 | 0.8053 | 0.8152
308.15 K | 998.185 | 1002.31 | 1525.6 | 1531.2 | 0.7251 | 0.733
313.15 K | 996.304 | 1000.34 | 1534.3 | 1540 | 0.6562 | 0.6646
318.15 K | 994.429 | 998.472 | 1540.7 | 1546.7 | 0.6021 | 0.6062

Source: the NIST ThermoML archive (doi:10.1016/j.jct.2019.03.011)
